Active and inactive are the calls of the source. The rule behind the calls is not given here.
Columns and labels:
NCI-H460 = assay: Growth inhibition of human NCI-H460 cells assessed as cell viability at 10 uM incubated for 48 hrs by sulforhodamine B assay; type: functional; conditions: NCI-H460, 48 h, read-out: Activity
M14 = assay: Growth inhibition of human M14 cells assessed as cell viability at 10 uM incubated for 48 hrs by sulforhodamine B assay; type: functional; conditions: M14, 48 h, read-out: Activity
SF-268 = assay: Growth inhibition of human SF268 cells assessed as cell viability at 10 uM incubated for 48 hrs by sulforhodamine B assay; type: functional; conditions: SF-268, 48 h, read-out: Activity
[1] = Growth inhibition of human SF539 cells assessed as cell viability at 10 uM incubated for 48 hrs by sulforhodamine B assay; type: functional; conditions: SF-539, 48 h, read-out: Activity
NCI-H322M = assay: Growth inhibition of human NCI-H322M cells assessed as cell viability at 10 uM incubated for 48 hrs by sulforhodamine B assay; type: functional; conditions: read-out: Activity
SW-620 = assay: Growth inhibition of human SW620 cells assessed as cell viability at 10 uM incubated for 48 hrs by sulforhodamine B assay; type: functional; conditions: SW-620, 48 h, read-out: Activity
SNB-19 = assay: Growth inhibition of human SNB19 cells assessed as cell viability at 10 uM incubated for 48 hrs by sulforhodamine B assay; type: functional; conditions: SNB-19, 48 h, read-out: Activity
UACC-257 = assay: Growth inhibition of human UACC257 cells assessed as cell viability at 10 uM incubated for 48 hrs by sulforhodamine B assay; type: functional; conditions: UACC-257, 48 h, read-out: Activity
[2] = Growth inhibition of human COLO205 cells assessed as cell viability at 10 uM incubated for 48 hrs by sulforhodamine B assay; type: functional; conditions: COLO 205, 48 h, read-out: Activity
SN12C = assay: Growth inhibition of human SN12C cells assessed as cell viability at 10 uM incubated for 48 hrs by sulforhodamine B assay; type: functional; conditions: read-out: Activity
HCT-116 = assay: Growth inhibition of human HCT116 cells assessed as cell viability at 10 uM incubated for 48 hrs by sulforhodamine B assay; type: functional; conditions: HCT-116, 48 h, read-out: Activity
UACC-62 = assay: Growth inhibition of human UACC62 cells assessed as cell viability at 10 uM incubated for 48 hrs by sulforhodamine B assay; type: functional; conditions: UACC-62, 48 h, read-out: Activity
PC-3 = assay: Growth inhibition of human PC3 cells assessed as cell viability at 10 uM incubated for 48 hrs by sulforhodamine B assay; type: functional; conditions: PC-3, 48 h, read-out: Activity
ACHN = assay: Growth inhibition of human ACHN cells assessed as cell viability at 10 uM incubated for 48 hrs by sulforhodamine B assay; type: functional; conditions: read-out: Activity
A498 = assay: Growth inhibition of human A498 cells assessed as cell viability at 10 uM incubated for 48 hrs by sulforhodamine B assay; type: functional; conditions: A498, 48 h, read-out: Activity
UO-31 = assay: Growth inhibition of human UO31 cells assessed as cell viability at 10 uM incubated for 48 hrs by sulforhodamine B assay; type: functional; conditions: UO-31, 48 h, read-out: Activity
CAKI-1 = assay: Growth inhibition of human CAKI-1 cells assessed as cell viability at 10 uM incubated for 48 hrs by sulforhodamine B assay; type: functional; conditions: CAKI-1, 48 h, read-out: Activity
HCT-15 = assay: Growth inhibition of human HCT15 cells assessed as cell viability at 10 uM incubated for 48 hrs by sulforhodamine B assay; type: functional; conditions: HCT-15, 48 h, read-out: Activity
MCF7 = assay: Growth inhibition of human MCF7 cells assessed as cell viability at 10 uM incubated for 48 hrs by sulforhodamine B assay; type: functional; conditions: MCF7, 48 h, read-out: Activity
DU-145 = assay: Growth inhibition of human DU145 cells assessed as cell viability at 10 uM incubated for 48 hrs by sulforhodamine B assay; type: functional; conditions: DU-145, 48 h, read-out: Activity
NCI-H226 = assay: Growth inhibition of human NCI-H226 cells assessed as cell viability at 10 uM incubated for 48 hrs by sulforhodamine B assay; type: functional; conditions: NCI-H226, 48 h, read-out: Activity
SNB-75 = assay: Growth inhibition of human SNB75 cells assessed as cell viability at 10 uM incubated for 48 hrs by sulforhodamine B assay; type: functional; conditions: SNB-75, 48 h, read-out: Activity
SR = assay: Growth inhibition of human SR cells assessed as cell viability at 10 uM incubated for 48 hrs by sulforhodamine B assay; type: functional; conditions: read-out: Activity
KM12 = assay: Growth inhibition of human KM12 cells assessed as cell viability at 10 uM incubated for 48 hrs by sulforhodamine B assay; type: functional; conditions: KM12, 48 h, read-out: Activity
[3] = Growth inhibition of human SF295 cells assessed as cell viability at 10 uM incubated for 48 hrs by sulforhodamine B assay; type: functional; conditions: SF-295, 48 h, read-out: Activity
[4] = Growth inhibition of human LOXIMVI cells assessed as cell viability at 10 uM incubated for 48 hrs by sulforhodamine B assay; type: functional; conditions: LOX IMVI, read-out: Activity
[5] = Growth inhibition of human NCI-ADR-RES cells assessed as cell viability at 10 uM incubated for 48 hrs by sulforhodamine B assay; type: functional; conditions: read-out: Activity
[6] = Growth inhibition of human Hs 578T cells assessed as cell viability at 10 uM incubated for 48 hrs by sulforhodamine B assay; type: functional; conditions: read-out: Activity
HOP-62 = assay: Growth inhibition of human HOP62 cells assessed as cell viability at 10 uM incubated for 48 hrs by sulforhodamine B assay; type: functional; conditions: HOP-62, 48 h, read-out: Activity
OVCAR-5 = assay: Growth inhibition of human OVCAR5 cells assessed as cell viability at 10 uM incubated for 48 hrs by sulforhodamine B assay; type: functional; conditions: OVCAR-5, 48 h, read-out: Activity
[7] = Growth inhibition of human HCC2998 cells assessed as cell viability at 10 uM incubated for 48 hrs by sulforhodamine B assay; type: functional; conditions: HCC 2998, 48 h, read-out: Activity
MDA-MB-435 = assay: Growth inhibition of human MDA-MB-435 cells assessed as cell viability at 10 uM incubated for 48 hrs by sulforhodamine B assay; type: functional; conditions: MDA-MB-435, 48 h, read-out: Activity
NCI-H23 = assay: Growth inhibition of human NCI-H23 cells assessed as cell viability at 10 uM incubated for 48 hrs by sulforhodamine B assay; type: functional; conditions: NCI-H23, 48 h, read-out: Activity
786-0 = assay: Growth inhibition of human 786-0 cells assessed as cell viability at 10 uM incubated for 48 hrs by sulforhodamine B assay; type: functional; conditions: 786-0, 48 h, read-out: Activity
SK-MEL-5 = assay: Growth inhibition of human SK-MEL-5 cells assessed as cell viability at 10 uM incubated for 48 hrs by sulforhodamine B assay; type: functional; conditions: SK-MEL-5, 48 h, read-out: Activity
Rattus norvegicus = assay: Antidiabetic activity in Wistar rat assessed as reduction in blood glucose level at 30 mg/kg, po dosed 30 mins before glucose challenge and measured 30 and 60 mins post glucose challenge by OGTT method; type: functional, organism-based

Structure (SMILES) | viability at 10 µM (NCI-H460) [%] | viability at 10 µM (M14) [%] | viability at 10 µM (SF-268) [%] | viability at 10 µM [1] [%] | viability at 10 µM (NCI-H322M) [%] | viability at 10 µM (SW-620) [%] | viability at 10 µM (SNB-19) [%] | viability at 10 µM (UACC-257) [%] | viability at 10 µM [2] [%] | viability at 10 µM (SN12C) [%] | viability at 10 µM (HCT-116) [%] | viability at 10 µM (UACC-62) [%] | viability at 10 µM (PC-3) [%] | viability at 10 µM (ACHN) [%] | viability at 10 µM (A498) [%] | viability at 10 µM (UO-31) [%] | viability at 10 µM (CAKI-1) [%] | viability at 10 µM (HCT-15) [%] | viability at 10 µM (MCF7) [%] | viability at 10 µM (DU-145) [%] | also measured
O=C(NCc1ccccc1)NS(=O)(=O)c1ccc(N2N=C(c3cc4ccccc4oc3=O)CC2c2cccs2)cc1 (stereo unspecified) | 107 | 98.8 | 103 | 103 | 106 | 108 | 108 | 104 | 119 | 98.4 | 106 | 102 | 108 | 102 | 107 | 95.7 | 94.2 | 106 | 94.4 | 110 | viability at 10 µM (NCI-H226): 98.4%; viability at 10 µM (SNB-75): 82.3%; viability at 10 µM (SR): 98.8%; viability at 10 µM (KM12): 105%; viability at 10 µM [3]: 93.8%; viability at 10 µM [4]: 97.7%; viability at 10 µM [5]: 103%; viability at 10 µM [6]: 99.6%; viability at 10 µM (HOP-62): 93.6%; viability at 10 µM (OVCAR-5): 111%; viability at 10 µM [7]: 106%; viability at 10 µM (MDA-MB-435): 103%; viability at 10 µM (NCI-H23): 101%; viability at 10 µM (786-0): 95.3%; viability at 10 µM (SK-MEL-5): 101%
COc1ccc(NC(=O)NS(=O)(=O)c2ccc(N3N=C(c4cc5ccccc5oc4=O)CC3c3ccc(N(C)C)cc3)cc2)cc1 (stereo unspecified) | 105 | 95.6 | 98.8 | 91.5 | 99.9 | 103 | 103 | 96.3 | 115 | 97.1 | 82.6 | 88.6 | 97.6 | 89.7 | 80.6 | 86 | 88.9 | 93.1 | 83.1 | 111 | viability at 10 µM (NCI-H226): 89.7%; viability at 10 µM (SNB-75): 70.2%; viability at 10 µM (SR): 74.3%; viability at 10 µM (KM12): 101%; viability at 10 µM [3]: 83.8%; viability at 10 µM [4]: 95.6%; viability at 10 µM [5]: 100%; viability at 10 µM [6]: 84.9%; viability at 10 µM (HOP-62): 71.8%; viability at 10 µM (OVCAR-5): 102%; viability at 10 µM [7]: 104%; viability at 10 µM (MDA-MB-435): 102%; viability at 10 µM (NCI-H23): 85.1%; viability at 10 µM (786-0): 96.9%; viability at 10 µM (SK-MEL-5): 98.4%
CN(C)c1ccc(C2CC(c3cc4ccccc4oc3=O)=NN2c2ccc(S(=O)(=O)NC(=O)NCc3ccccc3)cc2)cc1 (stereo unspecified) | 65.3 | 55 | 87.9 | 70.8 | 79.6 | 73.1 | 82 | 64.9 | 78.2 | 77.8 | 48.5 | 37.6 | 67.1 | 58.2 | 51.2 | 44.9 | 49.4 | 32.8 | 47.6 | 84.9 | Activity (Rattus norvegicus): Active; viability at 10 µM (NCI-H226): 74%; viability at 10 µM (SNB-75): 27.1%; viability at 10 µM (SR): 19.7%; viability at 10 µM (KM12): 72.9%; viability at 10 µM [3]: 61.7%; viability at 10 µM [4]: 79.8%; viability at 10 µM [5]: 83.1%; viability at 10 µM [6]: 67.1%; viability at 10 µM (HOP-62): 57.8%; viability at 10 µM (OVCAR-5): 74.6%; viability at 10 µM [7]: 90%; viability at 10 µM (MDA-MB-435): 65.5%; viability at 10 µM (NCI-H23): 67.3%; viability at 10 µM (786-0): 68.4%; viability at 10 µM (SK-MEL-5): 62.7%
